Results taken from patent publication US8389513B2, “2-amino-5,5-difluoro-5,6-dihydro-4H-[1,3]oxazin-4-yl)-phenyl]-amides” (Hoffmann-La Roche Inc., priority 2009, dated 2013).
pIC50: −log10 of the molar value.

Assays:
[1] = target: T1, recombinant human cathepsin E (Homo sapiens, UniProt P14091); experiment: Cathepsin E fluorescent substrate kinetic assay; format: biochemical; conditions: pH 4.5
T1 construct: purchased R&D Systems
T1 sequence (P14091 54-396): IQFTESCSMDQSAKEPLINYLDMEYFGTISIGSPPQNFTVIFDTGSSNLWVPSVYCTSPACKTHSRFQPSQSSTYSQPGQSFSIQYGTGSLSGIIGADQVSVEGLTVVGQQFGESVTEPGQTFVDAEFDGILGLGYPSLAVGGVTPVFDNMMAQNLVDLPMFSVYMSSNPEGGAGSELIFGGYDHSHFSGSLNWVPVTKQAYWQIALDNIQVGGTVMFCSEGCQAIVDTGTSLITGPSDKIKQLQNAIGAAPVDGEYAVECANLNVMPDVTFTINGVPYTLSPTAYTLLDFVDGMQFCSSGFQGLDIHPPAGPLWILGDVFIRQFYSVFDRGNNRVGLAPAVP
Description: Cathepsin D and Cathepsin E Fluorescent Substrate Kinetic Assays
The MR121 fluorescence assays described below are based on the fact that MR121 forms a non-fluorescent ground state complex with tryptophan. In solution this formation occurs at millimolar concentrations of tryptophan. The mechanism can be used to design a generic biochemical assay for proteases. […] In absence of protease activity, the substrates remain intact and the MR121 fluorescence is reduced by the high local Trp-concentration. If the substrates are cleaved by the enzymes the MR121 fluorescence is recovered.
The fluorescent substrate cathepsin D and cathepsin E kinetic assays were performed at room temperature in 384-well microtiter plates (black with clear flat bottom, non binding surface plates from Corning) in a final volume of 51 μl. The test compounds were serially diluted in DMSO (15 concentrations, 1/3 dilution steps) and 1 μl of diluted compounds were mixed for 10 min with 40 μl of cathepsin D (from human liver, Calbiochem) diluted in assay buffer (100 mM sodium acetate, 0.05% BSA, pH 5.5; final concentration: 200 nM) or with 40 μl of recombinant human cathepsin E (R&D Systems) diluted in assay buffer (100 mM sodium acetate, 0.05% BSA, pH 4.5; final concentration: 0.01 nM). […] The enzymatic reaction was followed in a plate: vision reader (Perkin Elmer) (excitation wavelength: 630 nm; emission: 695 nm) for at least 30 minutes in a kinetic measurement detecting an increase of MR121 fluorescence during the reaction time. The slope in the linear range of the kinetic was calculated and the IC50 of the test compounds were determined using a four parameter equation for curve fitting.

BACE2 = target: T2, BACE2 (Rattus norvegicus, UniProt Q6IE75); experiment: Assay for BACE inhibition by measuring cellular TMEM27 cleavage; format: cell-based; conditions: INS-TMEM27 cells (INS1e-derived); shed TMEM27 by ELISA; read-out: BACE2 cell act. IC50
T2 construct: endogenous cellular BACE2 in the Ins1e rat cell line; endogenous in cells; host or cells: INS-TMEM27 (INS1e-derived rat cell line with TetOn-inducible full-length hTMEM27)
T2 sequence (Q6IE75 63-514): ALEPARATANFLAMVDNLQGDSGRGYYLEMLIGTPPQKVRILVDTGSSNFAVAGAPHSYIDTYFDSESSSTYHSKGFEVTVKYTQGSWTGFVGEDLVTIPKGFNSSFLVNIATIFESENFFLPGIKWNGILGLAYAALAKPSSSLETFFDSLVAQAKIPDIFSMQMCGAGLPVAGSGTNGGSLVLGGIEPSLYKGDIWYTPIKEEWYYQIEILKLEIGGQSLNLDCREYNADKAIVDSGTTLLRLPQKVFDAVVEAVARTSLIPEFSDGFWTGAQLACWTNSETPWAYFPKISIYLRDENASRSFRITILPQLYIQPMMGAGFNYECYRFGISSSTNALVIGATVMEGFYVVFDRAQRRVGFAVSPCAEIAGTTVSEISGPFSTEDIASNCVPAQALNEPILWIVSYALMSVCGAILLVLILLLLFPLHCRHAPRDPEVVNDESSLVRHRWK
How it was run: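 Ins1e-derived INS-TMEM27 rat cells with doxycycline-inducible full-length human TMEM27; inhibitor added 2 h before doxycycline (500 ng/ml final), then 46 h at 37 °C. Shed TMEM27 in supernatant quantified by sandwich ELISA with anti-human-TMEM27 antibodies; EC50 from curve fit across inhibitor concentrations.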

CYP2C9 = target: T3, CYP2C9 (Homo sapiens, UniProt P11712); experiment: CYP inhibition assay, CYP2C9; format: in vitro ADME; conditions: human liver microsomes, diclofenac; read-out: CYP IC50 2C9
T3 construct: 0.2 mg/ml pooled human liver microsomes; from tissue; host or cells: pooled human liver microsomes
Method: Inhibition of cytochromes P450 (CYPs) 2C9, 2D6 and 3A4 was assessed using human liver microsomes and CYP-selective substrate metabolism reactions. 50 μl incubations were made up containing (finally) 0.2 mg/ml pooled human liver microsomes, 5 μM substrate (diclofenac for CYP2C9 [4′ hydroxylase], dextromethorphan for CYP2D6 [O-demethylase] or midazolam for CYP3A4 [1′ hydroxylase]), 0.25 μL DMSO containing test inhibitor and NADPH regenerating system. […] Incubations were prewarmed to 37° C. for 10 minutes before initiation by addition of NADPH regenerating system. Incubations were quenched after 5 minutes (20 minutes for dextromethorphan) by addition of 50 μl cold acetonitrile containing 20 ng/ml 4-OH-diclofenac-13C6, 20 ng/mL dextrorphan-D3 and 20 ng/mL 1-OH-midazolam-D4. Quenched incubates were stored at −20° C. for at least 1 hour before centrifugation (20,000×g, 20 minutes). Supernatants were removed and diluted 1:1 with water prior to analysis using a RapidFire sample injector system and API4000 mass spectrometer. Peak areas for substrate, metabolite and stable-labelled metabolite standard were determined using MS/MS. The peak area ratios between the metabolite generated by the enzymatic reaction and the internal standard were used in subsequent calculations. The percentage of (DMSO) control activity was calculated for each incubate and IC50 values estimated by non-linear regression. Sulfaphenazole, quinidine or ketoconazole were tested in each CYP2C9, CYP2D6 or CYP3A4 inhibition experiment, respectively, to ensure assay sensitivity and reproducibility.

T3 sequence (P11712 whole entry): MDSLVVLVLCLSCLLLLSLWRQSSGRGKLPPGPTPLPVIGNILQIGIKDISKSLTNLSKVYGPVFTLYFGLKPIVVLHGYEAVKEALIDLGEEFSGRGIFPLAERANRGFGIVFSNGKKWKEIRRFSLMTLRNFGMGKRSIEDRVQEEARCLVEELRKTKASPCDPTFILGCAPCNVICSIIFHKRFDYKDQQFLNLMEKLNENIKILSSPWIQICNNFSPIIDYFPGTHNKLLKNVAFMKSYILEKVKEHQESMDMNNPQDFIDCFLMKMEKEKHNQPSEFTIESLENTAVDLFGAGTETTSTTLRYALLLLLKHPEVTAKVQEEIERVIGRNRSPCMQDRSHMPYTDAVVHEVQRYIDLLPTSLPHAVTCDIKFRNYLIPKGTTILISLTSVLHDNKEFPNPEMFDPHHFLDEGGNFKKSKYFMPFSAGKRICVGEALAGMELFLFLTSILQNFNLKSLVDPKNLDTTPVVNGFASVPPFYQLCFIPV

Row | Compound | pIC50 [1] | pIC50 (BACE2) | pIC50 (CYP2C9)
1 | CC1(C)OC(N)=N[C@](C)(c2cc(NC(=O)c3ncc(C(F)(F)F)cc3Cl)ccc2F)C1(F)F [Example 20, 3-Chloro-5-trifluoromethyl-pyridine-2-carboxylic acid [3-((R)-2-amino-5,5-difluoro-4,6,6-trimethyl-5,6-dihydro-4H-[1,3]oxazin-4-yl)-4-fluoro-phenyl]-amide] | < 3.70 | 5.90 | 5.00 to 6.00
2 | C[C@]1(c2cc(NC(=O)c3ncc(C#N)cc3Cl)ccc2F)N=C(N)OCC1(F)F [Example 39, 3-Chloro-5-cyano-pyridine-2-carboxylic acid [3-((R)-2-amino-5,5-difluoro-4-methyl-5,6-dihydro-4H-[1,3]oxazin-4-yl)-4-fluoro-phenyl]-amide] | < 3.70 | 6.65 | < 5.00
3 | C[C@]1(c2cc(NC(=O)c3ncc(Cl)cc3Cl)ccc2F)N=C(N)OCC1(F)F [Example 8, 3,5-Dichloro-pyridine-2-carboxylic acid [3-((R)-2-amino-5,5-difluoro-4-methyl-5,6-dihydro-4H-[1,3]oxazin-4-yl)-4-fluoro-phenyl]-amide] |  | 7.15 | < 5.00
4 | CC1(C)OC(N)=N[C@](C)(c2cc(NC(=O)c3ccc(C#N)cn3)ccc2F)C1(F)F [Example 21, 5-Cyano-pyridine-2-carboxylic acid [3-((R)-2-amino-5,5-difluoro-4,6,6-trimethyl-5,6-dihydro-4H-[1,3]oxazin-4-yl)-4-fluoro-phenyl]-amide] | < 3.70 | 6.68 | < 5.00
5 | C[C@]1(c2cc(NC(=O)c3ccc(Cl)cn3)ccc2F)N=C(N)OCC1(F)F [Example 1, 5-Chloro-pyridine-2-carboxylic acid [3-((R)-2-amino-5,5-difluoro-4-methyl-5,6-dihydro-4H-[1,3]oxazin-4-yl)-4-fluoro-phenyl]-amide] | 3.96 | 7.46 | < 5.00
6 | C[C@]1(c2cc(NC(=O)c3ncc(C(F)(F)F)cc3Cl)ccc2F)N=C(N)OCC1(F)F [Example 5, 3-Chloro-5-trifluoromethyl-pyridine-2-carboxylic acid [3-((R)-2-amino-5,5-difluoro-4-methyl-5,6-dihydro-4H-[1,3]oxazin-4-yl)-4-fluoro-phenyl]-amide] | < 3.70 | 7.82 | 
7 | CC1(C)OC(N)=N[C@](C)(c2cc(NC(=O)c3ncc(C#N)cc3Cl)ccc2F)C1(F)F [Example 22, 3-Chloro-5-cyano-pyridine-2-carboxylic acid [3-((R)-2-amino-5,5-difluoro-4,6,6-trimethyl-5,6-dihydro-4H-[1,3]oxazin-4-yl)-4-fluoro-phenyl]-amide] | < 3.70 | 6.76 | < 5.00
